Experimental data reported in ChEMBL document CHEMBL1201862, “PubChem BioAssay data set” (2004).
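The compound was tested at five concentrations on cells cultured in 96-well plates, with a 48-hour exposure period. The concentration for 50% growth inhibition is given as GI50.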 Activity calls are given as the source filed them. No stated cut-off is given here; in the data, active = GI50 up to about 1.1 µM and inactive = higher.

Assays:
Experiment in all cases: inhibition of tumour cell growth, NCI panel, 48 h
SR = test system: SR
COLO 205 = test system: COLO 205
BT-549 = test system: BT-549
HT-29 = test system: HT-29
Hs-578T = test system: Hs-578T
M14 = test system: M14
MCF7 = test system: MCF7
CAKI-1 = test system: CAKI-1
IGROV-1 = test system: IGROV-1
SF-295 = test system: SF-295
EKVX = test system: EKVX
SF-268 = test system: SF-268
U-251 = test system: U-251
TK-10 = test system: TK-10
CCRF-CEM = test system: CCRF-CEM
MDA-MB-435 = test system: MDA-MB-435
MDA-N = test system: MDA-N
UACC-62 = test system: UACC-62
A498 = test system: A498

Measured: GI50

COc1cccc(/N=N/C(=NNC(=O)c2ccc(C)cc2)c2ccc(N(C)C)cc2)c1
inactive: SR 62.5 µM | COLO 205 44.3 µM | BT-549 > 100 µM | HT-29 > 100 µM | Hs-578T > 100 µM | M14 > 100 µM | MCF7 > 100 µM | CAKI-1 > 100 µM | IGROV-1 > 100 µM | SF-295 > 100 µM | EKVX > 100 µM | SF-268 > 100 µM | U-251 > 100 µM | TK-10 > 100 µM | CCRF-CEM > 100 µM | MDA-MB-435 21.1 µM | MDA-N 39.7 µM

COc1cc2c(cc1Cl)[n+]([O-])c(C#N)c(N1CCN(c3ccc([N+](=O)[O-])cc3)CC1)[n+]2[O-]
inactive: SR 2.86 µM | COLO 205 34.4 µM | BT-549 15 µM | HT-29 36.9 µM | Hs-578T 10.3 µM | M14 17.5 µM | MCF7 6 µM | CAKI-1 48.5 µM | IGROV-1 2.17 µM | SF-295 12.4 µM | EKVX 28.6 µM | SF-268 13.1 µM | U-251 7.78 µM | TK-10 27.3 µM | UACC-62 11.6 µM | CCRF-CEM 8.73 µM | MDA-MB-435 19.5 µM | MDA-N 24 µM

N#C/C(=C\N1CCNC1=S)C(=O)c1ccc2ccccc2c1
inactive: SR 71.4 µM | COLO 205 > 100 µM | BT-549 > 100 µM | HT-29 > 100 µM | Hs-578T > 100 µM | M14 > 100 µM | MCF7 > 100 µM | CAKI-1 > 100 µM | IGROV-1 > 100 µM | SF-295 > 100 µM | EKVX > 100 µM | SF-268 > 100 µM | U-251 > 100 µM | TK-10 > 100 µM | UACC-62 > 100 µM | A498 > 100 µM | MDA-MB-435 89.1 µM | MDA-N > 100 µM

COc1ccc(N2C(=O)C3c4[nH]c5ccccc5c4C4C(C)CCCC4C3C2=O)cc1 (centres undefined)
inactive: COLO 205 > 50.7 µM | BT-549 3.64 µM | HT-29 29.7 µM | Hs-578T 19.8 µM | M14 > 41.5 µM | MCF7 37.2 µM | CAKI-1 36.1 µM | IGROV-1 10 µM | SF-295 16.4 µM | EKVX > 39.4 µM | SF-268 41 µM | U-251 > 57.7 µM | TK-10 > 88.3 µM | UACC-62 48.8 µM | A498 45.5 µM | CCRF-CEM 5.66 µM | MDA-MB-435 3.46 µM | MDA-N 3.19 µM

NC(=S)N1N=C(c2ccccc2O)CC1c1ccccc1 (centres undefined)
inactive: COLO 205 8.97 µM | BT-549 20.8 µM | HT-29 11 µM | Hs-578T 20.7 µM | M14 11.3 µM | MCF7 4.45 µM | CAKI-1 27.9 µM | IGROV-1 11.4 µM | SF-295 6.43 µM | EKVX 20.4 µM | SF-268 20.8 µM | U-251 16.8 µM | TK-10 20.1 µM | UACC-62 11.6 µM | A498 11.9 µM | CCRF-CEM 7.94 µM | MDA-MB-435 3.02 µM | MDA-N 2.83 µM
